Assay results published in US10550094B2, “Compounds having antioxidant activity against free radicals and anti-inflammatory activity, and corresponding pharmaceutical or cosmetic compositions for skin care” (GIULIANI S.P.A., priority 2015, dated 2020).

These compounds were tested on involucrin (IVL) (assay: Skin barrier function protection: involucrin (IVL) gene expression by qRT-PCR in LPS-treated keratinocytes). Settings: 13.5 μM, with LPS, Control + LPS = 1.000.
Format: cell-based, human
Experimental: The immortalized line of human keratinocytes NCTC2544 is used (Perry V. P. et al., 1957), cultured in sterile flasks ([…]), incubated at 37° C. in a humid atmosphere at 5% CO2 in RPMI culture medium added with bovine fetal serum (FBS), 2 mm glutamine, 1% non-essential amino acids, in the presence of 1% penicillin and streptomycin. The 1:3 split is done every 2 days upon achieving the monolayer by washing with 1×PBS (phosphate buffer without Ca^2+ and Mg^2+) and detachment of cells with a trypsin-EDTA solution at 37° C. for 2 minutes. The cells were kept in culture in 25 cm^3 sterile flasks and incubated at 37° C. in a humid atmosphere at 5% CO2.
Negative control: untreated cells in RPMI medium added to 2.5% fetal bovine serum (FBS), 1% non-essential amino acids (NEAA), 1% of a penicillin and streptomycin mixture (Pen-Strep Mix), and kept in (12 well) 25 cm^2 culture plates at 37° C. and 5% CO2.
Positive control: cells in RPMI medium added to 2.5% fetal bovine serum (FBS), 1% non-essential amino acids (NEAA), 1% of a penicillin and streptomycin mixture (Pen-Strep Mix) and 10 μg/mL LPS (lipopolysaccharide) and kept in ([…]) 25 cm^2 culture plates at 37° C. and 5% CO2 (in the dark).
Study of the Skin Barrier Function Protection
The gene expression of the involucrin (IVL) and fillagrin (FLG) markers was evaluated by relative quantitative RT-PCR (quantitative reverse transcription-polymerase chain reaction-qRT-PCR).
This assay involved three sequential steps: • extraction of total RNA; • retrotranscription in cDNA; • qRT-PCR.
Human keratinocytes NCTC2544 were seeded in 12-well plates at the density of 0.5*10^6 cells/well and incubated until reaching about 80% confluence.
Then, the cells were incubated for 16 and 24 hours with the active compounds to be tested and the respective controls at the following concentrations: 13.5 and 27 μM, and admixed (in the well) with 10 μg/ml LPS.
The dilutions were prepared starting from 1000× stock in DMSO, sterile-filtered and using RPMI medium added to 2.5% fetal bovine serum (FBS), 1% non-essential amino acids (NEAA), 1% of a penicillin and streptomycin mixture (Pen-Strep Mix).
Cells kept in the culture medium alone (RPMI 2.5% FBS) were used as a negative control.
Cells in the culture medium alone (RPMI 2.5% FBS) and treated only with 10 μg/mL LPS were used as a positive control.
After incubation, the RNA was extracted. Total RNA was extracted from NCTC 2544 cells using the commercial kit Ribospin™ (GeneAllBiotechnology Co., LTD).
For RT-PCR amplification, the TaqMan® probe (AppliedBiosystems) method was used. The following TYaqMan probe was used: Hs00846307_s1 (IVL) and Hs00863478_g1 (FLG).
GAPDH: Hs99999905_m1 was used as control gene (housekeeping).
The data obtained were analyzed according to the method of 2-ΔΔCt and so it was possible to calculate the relative values of expression of the gene of interest, normalized compared to the housekeeping gene and calibrated on the control sample (untreated cells): ΔΔCt=ΔCttarget-housekeeping (control)−ΔCttarget-housekeeping (treated cells)
The 2^−ΔΔCt was calculated assuming an amplification efficiency of 100%.

| SMILES | (IVL) 16 h RQ ± SEM |
| --- | --- |
| OCC(O)C1OC(c2ccccc2)OC(CO)C1O (centres unmarked) [Sorbityl benzal, sorbityl benzal] | 6.646 ± 1.733 |
| COc1cc(C2OC(CO)C(O)C(C(O)CO)O2)ccc1O (centres unmarked) [Sorbityl vanillinal, sorbityl vanillinal] | 18.347 ± 1.664 |
| O=C(OCC1OC(c2ccco2)OC(C(COC(=O)c2ccccc2)OC(=O)c2ccccc2)C1OC(=O)c1ccccc1)c1ccccc1 (centres unmarked) [Tetrabenzoyl sorbityl furfural, tetrabenzoyl sorbityl furfural] | 9.563 ± 1.159 |
| CC(=O)OCC1OC(c2ccco2)OC(C(COC(C)=O)OC(C)=O)C1OC(C)=O (centres unmarked) [Tetracetyl sorbityl furfural, tetracetyl sorbityl furfural] | 57.282 ± 17.060 |
| OCC1OC(c2ccco2)OC(CO)C1O (centres unmarked) [Xylitil furfural, xylitil furfural] | 60.653 ± 14.549 |
